Data on 19 molecules can be found in patent publication US20250188110A1, “SPECIFIC SMALL MOLECULE INHIBITORS THAT BLOCK KMT9 METHYLTRANSFERASE ACTIVITY AND FUNCTION” (ALBERT-LUDWIGS-UNIVERSITÄT FREIBURG, priority 2021, published 2025).

In assay [1] the target is T1, KMT9 (Homo sapiens, UniProt Q9Y5N5).
T1 sequence (Q9Y5N5 1-214): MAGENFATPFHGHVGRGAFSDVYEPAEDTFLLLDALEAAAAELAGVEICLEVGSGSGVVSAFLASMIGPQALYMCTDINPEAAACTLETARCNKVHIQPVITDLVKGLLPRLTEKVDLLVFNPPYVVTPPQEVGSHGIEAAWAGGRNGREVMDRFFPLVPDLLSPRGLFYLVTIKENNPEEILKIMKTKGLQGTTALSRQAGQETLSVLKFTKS
T1 sequence (Q9UI30 1-120 isoform Q9UI30-2 partner): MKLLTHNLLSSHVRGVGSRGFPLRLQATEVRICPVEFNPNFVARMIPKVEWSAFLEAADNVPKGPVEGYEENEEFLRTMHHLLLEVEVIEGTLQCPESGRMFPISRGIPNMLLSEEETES
Put plainly: KMT9 thermal shift assay (SyproOrange). It counts as binding. Particulars: ΔTm; 500 µM compound, 2 μM KMT9, 5X SO; read-out: Thermal shift. Summed up: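 Recombinant KMT9 was incubated with compound and SyproOrange at 25° C in 50 mM BTP pH 8.5, 1 mM MgCl2, 1 mM DTT. It was then heated from 20° C to 95° C at 1° C per 15 s with fluorescence read each step. Tm came from a Boltzmann sigmoidal fit; ΔTm relative to DMSO control, binned in 5 K ranges.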

Assay [2] has as its target T1, KMT9. The experiment in a line: Microscale thermophoresis (MST) KMT9 binding. Particulars: microscale thermophoresis, His-tag labelled KMT9 (20 nM); read-out: MST. Summed up:
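His-tagged KMT9 (20 nM), RED-Tris-NTA labelled, titrated with varying compound concentrations in 25 mM HEPES pH 7.5, 100 mM NaCl, 1 mM DTT, 0.05% Tween. MST at 40% MST and 100% LED power, Nano-RED excitation; Kd binned A ≤10 nM, B 10–100, C 100–1000, D >1000 nM.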

Assay [3] deals with T1, KMT9. Put plainly: KMT9 methyltransferase inhibition assay, 3H-SAM scintillation (entries 1-154). Particulars: entries 1-154: 3H-SAM assay, 25 nM KMT9, 5 μM ETF1. It counts as biochemical. The gist of the method:
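Final 25 nM KMT9, 5 μM ETF1 (residues 140-275), 0.3 μM 3H-SAM plus 0.7 μM SAM in pH 8.5 BTP buffer, 2 h at 30° C. TCA-quenched, filter-washed, methylation counted by scintillation; % inhibition vs DMSO and no-enzyme controls, IC50 from four-parameter fit.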

Consider `CNc1ncnc2c1ccn2[C@@H]1C[C@H](C#CCNCCc2ccccc2)[C@@H](O)[C@H]1O` [426 (297), (1R,2S,3R,5R)-3-[4-(methylamino)pyrrolo[2,3-d]pyrimidin-7-yl]-5-{3-[(2-phenylethyl)amino]prop-1-yn-1-yl}cyclopentane-1,2-diol], for which the ΔTm at 500 µM at KMT9 [1] is not above 10 °C. Moreover, on KMT9 [2], the Kd was more than 1000 nM. For the same molecule, at KMT9 [3], the IC50 was more than 10000 nM.

Take `CCC(C)c1cn([C@@H]2C[C@H](CNCCCNCCc3ccccc3)[C@@H](O)[C@H]2O)c2ncnc(N)c12` (stereo partly drawn) [469 (343), (1R,2S,3R,5R)-3-(4-Amino-5-(sec-butyl)-7H-pyrrolo[2,3-d]pyrimidin-7-yl)-5-(((3-(phenethylamino)propyl)amino)methyl) cyclopentane-1,2-diol]: the ΔTm at 500 µM at KMT9 [1] was 10 to 15 °C. Besides, the Kd at KMT9 [2] was 100 to 1000 nM. In addition, the IC50 against KMT9 [3] lay within 1000 to 10000 nM.

As to `CNc1ncnc2c1ccn2[C@@H]1C[C@H](/C=C/CCCNCCc2ccccc2)[C@@H](O)[C@H]1O` [425 (296), (1R,2S,3R,5R)-3-(4-(methylamino)-7H-pyrrolo[2,3-d]pyrimidin-7-yl)-5-((E)-5-(phenethylamino)pent-1-en-1-yl) cyclopentane-1,2-diol], the ΔTm at 500 µM on KMT9 [1] is not above 10 °C. In addition, the Kd at KMT9 [2] is more than 1000 nM. The molecule further yielded an IC50 at KMT9 [3] of more than 10000 nM.

As for `CNc1ncnc2c1c(Br)cn2[C@@H]1C[C@H](CNCCCNCCc2cccc(Oc3ccccc3)c2)[C@@H](O)[C@H]1O` [458 (330), (1R,2S,3R,5R)-3-(5-Bromo-4-(methylamino)-7H-pyrrolo[2,3-d]pyrimidin-7-yl)-5-(((3-((3-phenoxyphenethyl)amino)propyl)amino)methyl) cyclopentane-1,2-diol], on KMT9 [1], the ΔTm at 500 µM is not above 10 °C. The Kd on KMT9 [2] was more than 1000 nM. The IC50 at KMT9 [3] was more than 10000 nM.

On to `C=Cc1cn([C@@H]2C[C@H](CN3CC(CNCCc4ccc(F)cc4)C3)[C@@H](O)[C@H]2O)c2ncnc(N)c12` [485 (359), (1R,2S,3R,5R)-3-(4-Amino-5-vinyl-7H-pyrrolo[2,3-d]pyrimidin-7-yl)-5-((3-(((4-fluorophenethyl)amino)methyl)azetidin-1-yl)methyl) cyclopentane-1,2-diol], for which the ΔTm at 500 µM at KMT9 [1] lay within 15 to 20 °C. The Kd at KMT9 [2] is 10 to 100 nM. This molecule also registered an IC50 on KMT9 [3] of 1000 to 10000 nM.

Regarding `Nc1ncnc2c1c(Br)cn2[C@@H]1C[C@H](CNCCCNCCc2ccc(F)cc2F)[C@@H](O)[C@H]1O` [334 (238), (1R,2S,3R,5R)-3-(4-amino-5-bromo-7H-pyrrolo[2,3-d]pyrimidin-7-yl)-5-(((3-((2,4-difluorophenethyl)amino)propyl)amino)methyl) cyclopentane-1,2-diol], the ΔTm at 500 µM on KMT9 [1] lay within 15 to 20 °C. The Kd at KMT9 [2] fell in the range of 10 to 100 nM. At KMT9 [3], this molecule gave a half-inhibitory concentration (IC50) of 100 to 1000 nM.

Regarding `CCc1cn([C@@H]2C[C@H](CNCCCNCCc3ccccc3)[C@@H](O)[C@H]2O)c2ncncc12` [Compound 609, (1R,2S,3R,5R)-3-{5-ethylpyrrolo[2,3-d]pyrimidin-7-yl}-5-[({3-[(2-phenylethyl)amino]propyl}amino)methyl]cyclopentane-1,2-diol], the ΔTm at 500 µM at KMT9 [1] is not above 10 °C. The Kd at KMT9 [2] was in the range of 100 to 1000 nM. Also, on KMT9 [3], the IC50 is more than 10000 nM.

For `CCNC(=O)NCCCNC(=O)[C@H]1O[C@@H](n2cnc3c(N)ncnc32)[C@H](O)[C@@H]1O` [307 (206), (2S,3S,4R,5R)-5-(6-amino-9H-purin-9-yl)-N-(3-(3-ethylureido)propyl)-3,4-dihydroxytetrahydrofuran-2-carboxamide], the ΔTm at 500 µM on KMT9 [1] is not above 10 °C. Besides, the Kd on KMT9 [2] is more than 1000 nM. Moreover, the IC50 on KMT9 [3] was more than 10000 nM.

With `Nc1ncnc2c1c(-c1nc(Cc3ccccc3)cs1)cn2[C@@H]1C[C@H](C2CCNCC2)[C@@H](O)[C@H]1O` [Compound 488, (1R,2S,3R,5R)-3-(4-amino-5-(4-benzylthiazol-2-yl)-7H-pyrrolo[2,3-d]pyrimidin-7-yl)-5-(piperidin-4-yl)cyclopentane-1,2-diol], on KMT9 [1], the ΔTm at 500 µM lay in the range of 10 to 15 °C. Besides, on KMT9 [2], the Kd is 10 to 100 nM. Besides, the IC50 against KMT9 [3] was 1000 to 10000 nM.

As for `CNc1ncnc2c1ccn2[C@@H]1C[C@H](C(=O)NCCCNCc2ccc(Oc3ccc(Cl)cc3)c(F)c2)[C@@H](O)[C@H]1O` [352 (256), (1S,2R,3S,4R)—N-(3-((4-(4-chlorophenoxy)-3-fluorobenzyl)amino)propyl)-2,3-dihydroxy-4-(4-(methylamino)-7H-pyrrolo[2.3-d]pyrimidin-7-yl)cyclopentane-1-carboxamide], the ΔTm at 500 µM on KMT9 [1] lay in the range of 10 to 15 °C. In addition, the Kd on KMT9 [2] is 100 to 1000 nM. Besides, the IC50 on KMT9 [3] is more than 10000 nM.

On to `CNc1ncnc2c1ccn2[C@@H]1C[C@H](CNCCCNCCc2cccc(Sc3ccccc3)c2)[C@@H](O)[C@H]1O` [372 (276), (1R,2S,3R,5R)-3-(4-(methylamino)-7H-pyrrolo[2,3-a]pyrimidin-7-yl)-5-(((3-((3-(phenylthio)phenethyl)amino)propyl)amino)methyl) cyclopentane-1,2-diol], for which the ΔTm at 500 µM on KMT9 [1] was in the range of 10 to 15 °C. The Kd on KMT9 [2] lay in the range of 100 to 1000 nM. In addition, at KMT9 [3], the IC50 was 1000 to 10000 nM.

For `Nc1ncnc2c1c(-c1ccccc1)cn2[C@@H]1C[C@H](CNCCCNCCc2cccc(Oc3ccccc3)c2)[C@@H](O)[C@H]1O` [461 (334), (1R,2S,3R,5R)-3-(4-Amino-5-phenyl-7H-pyrrolo[2,3-d]pyrimidin-7-yl)-5-(((3-((3-phenoxyphenethyl)amino)propyl)amino)methyl) cyclopentane-1,2-diol], the ΔTm at 500 µM at KMT9 [1] was in the range of 15 to 20 °C. For the same molecule, the Kd at KMT9 [2] fell in the range of 100 to 1000 nM. Also, on KMT9 [3], the IC50 is 100 to 1000 nM.

Regarding `C=Cc1cn([C@@H]2C[C@H](CNCCCNCCc3ccccc3)[C@@H](O)[C@H]2O)c2ncnc(C)c12` [Compound 610, (1R,2S,3R,5R)-3-(4-Methyl-5-vinyl-7H-pyrrolo[2,3-d]pyrimidin-7-yl)-5-(((3-(phenethylamino)propyl)amino)methyl)cyclopentane-1,2-diol], on KMT9 [1], the ΔTm at 500 µM is not above 10 °C. The Kd on KMT9 [2] was more than 1000 nM. The IC50 against KMT9 [3] was more than 10000 nM.

In the case of `N#Cc1cn([C@@H]2C[C@H](CNCCCNCCc3ccccc3)[C@@H](O)[C@H]2O)c2ncnc(N)c12` [483 (357), 4-Amino-7-((1R,2S,3R,4R)-2,3-dihydroxy-4-(((3-(phenethylamino)propyl)amino)methyl)cyclopentyl)-7H-pyrrolo[2,3-d]pyrimidine-5-carbonitrile], the ΔTm at 500 µM on KMT9 [1] lay within 10 to 15 °C. In addition, the Kd on KMT9 [2] fell in the range of 100 to 1000 nM. The molecule further registered an IC50 at KMT9 [3] of 1000 to 10000 nM.

For `CCN(CCCNCCc1cccc(Oc2ccccc2)c1)C[C@H]1C[C@@H](n2ccc3c(NC)ncnc32)[C@H](O)[C@@H]1O` [364 (268), (1S,2R,3R,5R)-3-((ethyl(3-((3-phenoxyphenethyl)amino)propyl)amino)methyl)-5-(4-(methylamino)-7H-pyrrolo[2,3-d]pyrimidin-7-yl) cyclopentane-1,2-diol], on KMT9 [1], the ΔTm at 500 µM fell in the range of 10 to 15 °C. The Kd on KMT9 [2] lay within 100 to 1000 nM. On KMT9 [3], this molecule yielded an IC50 of 1000 to 10000 nM.

In the case of `O[C@@H]1[C@@H](CNCCCNCCc2ccccc2)C[C@@H](n2cc(-c3[nH]ncc3Cl)c3cncnc32)[C@@H]1O` [Compound 633, (1R,2S,3R,5R)-3-(5-(4-Chloro-1H-pyrazol-5-yl)-7H-pyrrolo[2,3-d]pyrimidin-7-yl)-5-(((3-(phenethylamino)propyl)amino)methyl)cyclopentane-1,2-diol], at KMT9 [1], the ΔTm at 500 µM was not above 10 °C. For the same molecule, the Kd at KMT9 [2] is more than 1000 nM. On KMT9 [3], this molecule came in with an IC50 of 1000 to 10000 nM.

Regarding `CNc1ncnc2c1ccn2[C@@H]1C[C@H](CN2CCCC23CCNCC3)[C@@H](O)[C@H]1O` [451 (323), (1S,2R,3R,5R)-3-((1,8-Diazaspiro[4.5]decan-1-yl)methyl)-5-(4-(methylamino)-7H-pyrrolo[2,3-d]pyrimidin-7-yl) cyclopentane-1,2-diol], the ΔTm at 500 µM at KMT9 [1] was not above 10 °C. Moreover, on KMT9 [2], the Kd was more than 1000 nM. For the same molecule, on KMT9 [3], the IC50 was more than 10000 nM.

Consider `CNc1ncnc2c1ccn2[C@@H]1C[C@H](C(=O)NCCNCCc2cccc(Oc3ccccc3)c2)[C@@H](O)[C@H]1O` [356 (260), (1S,2R,3S,4R)-2,3-dihydroxy-4-(4-(methylamino)-7H-pyrrolo[2,3-d]pyrimidin-7-yl)-N-(2-((3-phenoxyphenethyl)amino)ethyl) cyclopentane-1-carboxamide], for which the ΔTm at 500 µM on KMT9 [1] is 10 to 15 °C. Further, the Kd on KMT9 [2] lay in the range of 100 to 1000 nM. At KMT9 [3], this molecule gave an IC50 of more than 10000 nM.

Regarding `Nc1ncnc2c1c(C1CCOCC1)cn2[C@@H]1C[C@H](CNCCCNCCc2ccccc2)[C@@H](O)[C@H]1O` [479 (353), (1R,2S,3R,5R)-3-(4-Amino-5-(tetrahydro-2H-pyran-4-yl)-7H-pyrrolo[2,3-d]pyrimidin-7-yl)-5-(((3-(phenethylamino)propyl)amino)methyl) cyclopentane-1,2-diol], at KMT9 [1], the ΔTm at 500 µM lay within 10 to 15 °C. Besides, on KMT9 [2], the Kd is 100 to 1000 nM. The IC50 at KMT9 [3] was 1000 to 10000 nM.
